HELM strings list units from the 5' end as sugar, base in round brackets, then linkage (d deoxyribose, r ribose, m 2'-O-methyl, p phosphodiester). Strings are as the collection lists them; they lack the last nucleoside at the 3' end of the tested compound. [moe] = 2'-O-(2-methoxyethyl) (MOE); [sp] = phosphorothioate linkage; [m5C] = 5-methylcytosine
target: ATXN2; assay: mouse, dose not given; conditions: ASO

Q: With “RNA1{[moe](G)[sp].[moe](T)p.[moe](T)p.[moe](G)p.[moe](T)p.d(T)[sp].d(G)[sp].d(T)[sp].d(T)[sp].d(T)[sp].d(A)[sp].d([m5C])[sp].d(A)[sp].d(T)[sp].d(T)[sp].[moe](A)p.[moe](T)p.[moe](T)[sp].[moe](A)}$$$$ (last 3' nucleoside missing)” as the substance, how does the 3 h FOB score read?
A: Its 3 h FOB score is 0 score 0-7.

Q: Which 3 h FOB score does the source give for “RNA1{[moe]([m5C])[sp].[moe](G)p.[moe](T)p.[moe](G)p.[moe](G)p.d(T)[sp].d(G)[sp].d(G)[sp].d(T)[sp].d(G)[sp].d(T)[sp].d(G)[sp].d([m5C])[sp].d(G)[sp].d([m5C])[sp].[moe](A)p.[moe](T)p.[moe](G)[sp].[moe](T)}$$$$ (last 3' nucleoside missing)” here?
A: The 3 h FOB score was 6.25 score 0-7.

Q: “RNA1{[moe]([m5C])[sp].[moe](G)p.[moe]([m5C])p.[moe](G)p.[moe](G)p.d(T)[sp].d(G)[sp].d(A)[sp].d(A)[sp].d(T)[sp].d(T)[sp].d([m5C])[sp].d(T)[sp].d(G)[sp].d(T)[sp].[moe]([m5C])p.[moe](T)p.[moe]([m5C])[sp].[moe]([m5C])}$$$$ (last 3' nucleoside missing)” was tested. Which 3 h FOB score did it give?
A: Its 3 h FOB score is 1 score 0-7.

Q: With “RNA1{[moe](T)[sp].[moe]([m5C])p.[moe](A)p.[moe](T)p.[moe]([m5C])[sp].d(A)[sp].d(T)[sp].d(T)[sp].d(T)[sp].d(T)[sp].d([m5C])[sp].d([m5C])[sp].d(A)[sp].[moe](G)p.[moe](G)p.[moe](G)[sp].[moe]([m5C])}$$$$ (last 3' nucleoside missing)” as the substance, how does the 3 h FOB score read?
A: The 3 h FOB score was 1 score 0-7.

Q: For “RNA1{[moe](A)[sp].[moe]([m5C])p.[moe](A)p.[moe]([m5C])p.d(A)[sp].d(G)[sp].d(T)[sp].d(T)[sp].d(T)[sp].d([m5C])[sp].d(A)[sp].d([m5C])[sp].d(T)[sp].d(A)[sp].[moe](G)p.[moe](G)p.[moe](T)p.[moe](T)[sp].[moe]([m5C])}$$$$ (last 3' nucleoside missing)”, which 3 h FOB score is on record?
A: The 3 h FOB score was 0 score 0-7.

Q: With “RNA1{[moe](T)[sp].[moe](G)p.[moe](G)p.[moe](A)p.[moe](T)p.[moe](T)p.d([m5C])[sp].d(T)[sp].d(G)[sp].d(T)[sp].d(A)[sp].d([m5C])[sp].d(T)[sp].d(T)[sp].d(T)[sp].d(T)[sp].[moe]([m5C])p.[moe](T)[sp].[moe]([m5C])}$$$$ (last 3' nucleoside missing)” as the substance, how does the 3 h FOB score read?
A: Its 3 h FOB score is 1 score 0-7.

Q: How did the 3 h FOB score turn out when “RNA1{[moe](T)[sp].[moe](G)p.[moe](G)p.[moe](T)p.[moe](G)p.d(G)[sp].d(T)[sp].d(G)[sp].d(T)[sp].d(G)[sp].d([m5C])[sp].d(G)[sp].d([m5C])[sp].d(A)[sp].d(T)[sp].[moe](G)p.[moe](T)p.[moe](A)[sp].[moe](G)}$$$$ (last 3' nucleoside missing)” was run?
A: The 3 h FOB score was 6.5 score 0-7.

Q: Which 3 h FOB score does the source give for “RNA1{[moe](G)[sp].[moe](T)p.[moe](A)p.[moe]([m5C])p.[moe](T)[sp].d(T)[sp].d(T)[sp].d(T)[sp].d([m5C])[sp].d(T)[sp].d([m5C])[sp].d(A)[sp].d(T)[sp].[moe](G)p.[moe](T)p.[moe](G)[sp].[moe]([m5C])}$$$$ (last 3' nucleoside missing)” here?
A: The 3 h FOB score was 1.25 score 0-7.

Q: For “RNA1{[moe](A)[sp].[moe](A)p.[moe](G)p.[moe](T)p.[moe](A)p.d(G)[sp].d(T)[sp].d(G)[sp].d(T)[sp].d(T)[sp].d(T)[sp].d(G)[sp].d(G)[sp].d(G)[sp].d(A)[sp].[moe](T)p.[moe](G)p.[moe]([m5C])[sp].[moe](T)}$$$$ (last 3' nucleoside missing)”, which 3 h FOB score is on record?
A: Its 3 h FOB score is 6 score 0-7.

Q: For “RNA1{[moe](G)[sp].[moe]([m5C])p.[moe](A)p.[moe]([m5C])p.[moe](A)p.d(T)[sp].d(A)[sp].d(G)[sp].d(G)[sp].d(T)[sp].d(T)[sp].d(A)[sp].d(G)[sp].d(A)[sp].d(A)[sp].[moe](T)p.[moe](T)p.[moe](T)[sp].[moe](T)}$$$$ (last 3' nucleoside missing)”, which 3 h FOB score is on record?
A: Its 3 h FOB score is 4 score 0-7.

Q: With “RNA1{[moe](G)[sp].[moe](T)p.[moe](G)p.[moe](A)p.[moe](G)p.d(T)[sp].d(T)[sp].d([m5C])[sp].d(A)[sp].d([m5C])[sp].d([m5C])[sp].d(T)[sp].d(G)[sp].d([m5C])[sp].d(A)[sp].[moe](T)p.[moe]([m5C])p.[moe]([m5C])[sp].[moe]([m5C])}$$$$ (last 3' nucleoside missing)” as the substance, how does the 3 h FOB score read?
A: Its 3 h FOB score is 2.25 score 0-7.

Q: Which 3 h FOB score does the source give for “RNA1{[moe](T)[sp].[moe](A)p.[moe](A)p.[moe](G)p.[moe](A)p.d([m5C])[sp].d(T)[sp].d(T)[sp].d(T)[sp].d(T)[sp].d(T)[sp].d(A)[sp].d(T)[sp].d(G)[sp].d(T)[sp].[moe](T)p.[moe](G)p.[moe]([m5C])[sp].[moe](T)}$$$$ (last 3' nucleoside missing)” here?
A: Its 3 h FOB score is 1 score 0-7.

Q: For “RNA1{[moe](A)[sp].[moe](T)p.[moe](T)p.[moe](T)p.[moe](T)p.d(G)[sp].d(A)[sp].d(A)[sp].d(T)[sp].d(T)[sp].d(A)[sp].d([m5C])[sp].d(A)[sp].d(A)[sp].d(T)[sp].[moe](G)p.[moe]([m5C])p.[moe](G)[sp].[moe](G)}$$$$ (last 3' nucleoside missing)”, which 3 h FOB score is on record?
A: Its 3 h FOB score is 0 score 0-7.

Q: With “RNA1{[moe](A)[sp].[moe]([m5C])p.[moe](A)p.[moe](G)p.[moe](T)p.d(T)[sp].d(T)[sp].d([m5C])[sp].d(A)[sp].d([m5C])[sp].d(T)[sp].d(A)[sp].d(G)[sp].d(G)[sp].d(T)[sp].[moe](T)p.[moe]([m5C])p.[moe](T)[sp].[moe]([m5C])}$$$$ (last 3' nucleoside missing)” as the substance, how does the 3 h FOB score read?
A: Its 3 h FOB score is 3.25 score 0-7.

Q: With “RNA1{[moe](G)[sp].[moe](G)p.[moe](T)p.[moe](A)p.[moe]([m5C])p.d(A)[sp].d([m5C])[sp].d(A)[sp].d(G)[sp].d(T)[sp].d(T)[sp].d(T)[sp].d([m5C])[sp].d(A)[sp].d([m5C])[sp].[moe](T)p.[moe](A)p.[moe](G)[sp].[moe](G)}$$$$ (last 3' nucleoside missing)” as the substance, how does the 3 h FOB score read?
A: Its 3 h FOB score is 4.75 score 0-7.

Q: With “RNA1{[moe](G)[sp].[moe]([m5C])p.[moe](T)p.[moe](G)p.[moe](T)p.d(G)[sp].d(A)[sp].d(G)[sp].d(T)[sp].d(T)[sp].d([m5C])[sp].d(A)[sp].d([m5C])[sp].d([m5C])[sp].d(T)[sp].[moe](G)p.[moe]([m5C])p.[moe](A)[sp].[moe](T)}$$$$ (last 3' nucleoside missing)” as the substance, how does the 3 h FOB score read?
A: The 3 h FOB score was 0 score 0-7.

Q: With “RNA1{[moe](A)[sp].[moe]([m5C])p.[moe](G)p.[moe]([m5C])p.[moe](T)p.d(G)[sp].d(T)[sp].d(A)[sp].d(T)[sp].d(T)[sp].d(T)[sp].d(T)[sp].d(T)[sp].d(A)[sp].d([m5C])[sp].[moe](T)p.[moe]([m5C])p.[moe](A)[sp].[moe]([m5C])}$$$$ (last 3' nucleoside missing)” as the substance, how does the 3 h FOB score read?
A: The 3 h FOB score was 0 score 0-7.

Q: How did the 3 h FOB score turn out when “RNA1{[moe](T)[sp].[moe](G)p.[moe](T)p.[moe](G)p.[moe](T)p.d(A)[sp].d(T)[sp].d(T)[sp].d(T)[sp].d(T)[sp].d(T)[sp].d([m5C])[sp].d(T)[sp].d(T)[sp].d([m5C])[sp].[moe]([m5C])p.[moe](T)p.[moe]([m5C])[sp].[moe](A)}$$$$ (last 3' nucleoside missing)” was run?
A: Its 3 h FOB score is 0.25 score 0-7.

Q: Which 3 h FOB score does the source give for “RNA1{[moe](T)[sp].[moe](G)p.[moe](T)p.[moe](A)p.d([m5C])[sp].d(T)[sp].d(T)[sp].d([m5C])[sp].d(A)[sp].d([m5C])[sp].d(A)[sp].d(T)[sp].d(T)[sp].d(T)[sp].[moe](G)p.[moe](G)p.[moe](A)p.[moe](G)[sp].[moe]([m5C])}$$$$ (last 3' nucleoside missing)” here?
A: The 3 h FOB score was 1 score 0-7.

Q: How did the 3 h FOB score turn out when “RNA1{[moe](A)[sp].[moe](T)p.[moe]([m5C])p.[moe](T)p.[moe](A)p.d(T)[sp].d(G)[sp].d(A)[sp].d(T)[sp].d(T)[sp].d(T)[sp].d(T)[sp].d([m5C])[sp].d(A)[sp].d(T)[sp].[moe]([m5C])p.[moe](A)p.[moe](G)[sp].[moe](G)}$$$$ (last 3' nucleoside missing)” was run?
A: The 3 h FOB score was 0 score 0-7.

Q: For “RNA1{[moe](T)[sp].[moe](T)p.[moe]([m5C])p.[moe](T)[sp].[moe]([m5C])[sp].d(T)[sp].d(A)[sp].d(T)[sp].d(T)[sp].d(T)[sp].d([m5C])[sp].d(T)[sp].d(T)[sp].d(T)[sp].d(G)[sp].[moe](T)p.[moe]([m5C])p.[moe]([m5C])[sp].[moe](A)}$$$$ (last 3' nucleoside missing)”, which 3 h FOB score is on record?
A: Its 3 h FOB score is 4 score 0-7.

Q: For “RNA1{[moe](A)[sp].[moe]([m5C])p.[moe](T)p.[moe](G)p.[moe](A)p.d(G)[sp].d(T)[sp].d(T)[sp].d([m5C])[sp].d(T)[sp].d(A)[sp].d(T)[sp].d(A)[sp].d(G)[sp].d(G)[sp].[moe](T)p.[moe](G)p.[moe]([m5C])[sp].[moe](T)}$$$$ (last 3' nucleoside missing)”, which 3 h FOB score is on record?
A: The 3 h FOB score was 3 score 0-7.

Q: For “RNA1{[moe]([m5C])[sp].[moe](A)p.[moe]([m5C])p.[moe](A)p.[moe](G)[sp].d(T)[sp].d(T)[sp].d(T)[sp].d([m5C])[sp].d(A)[sp].d([m5C])[sp].d(T)[sp].d(A)[sp].d(G)[sp].d(G)[sp].[moe](T)p.[moe](T)p.[moe]([m5C])[sp].[moe](T)}$$$$ (last 3' nucleoside missing)”, which 3 h FOB score is on record?
A: The 3 h FOB score was 4.75 score 0-7.

Q: With “RNA1{[moe](A)[sp].[moe]([m5C])p.[moe](T)p.[moe](T)p.[moe](G)p.d(T)[sp].d(A)[sp].d([m5C])[sp].d(T)[sp].d(T)[sp].d([m5C])[sp].d(A)[sp].d([m5C])[sp].d(A)[sp].d(T)[sp].[moe](T)p.[moe](T)p.[moe](G)[sp].[moe](G)}$$$$ (last 3' nucleoside missing)” as the substance, how does the 3 h FOB score read?
A: The 3 h FOB score was 1 score 0-7.

Q: Which 3 h FOB score does the source give for “RNA1{[moe](G)[sp].[moe](A)p.[moe]([m5C])p.[moe](A)p.[moe](T)p.d(G)[sp].d([m5C])[sp].d(G)[sp].d(G)[sp].d(T)[sp].d(T)[sp].d(T)[sp].d([m5C])[sp].d(A)[sp].d([m5C])[sp].[moe]([m5C])p.[moe](A)p.[moe](T)[sp].[moe](T)}$$$$ (last 3' nucleoside missing)” here?
A: The 3 h FOB score was 4 score 0-7.

Q: “RNA1{[moe](G)[sp].[moe](G)p.[moe](T)p.[moe](A)p.[moe](A)p.d([m5C])[sp].d(A)[sp].d(G)[sp].d([m5C])[sp].d(T)[sp].d([m5C])[sp].d(T)[sp].d(G)[sp].d(T)[sp].d(T)[sp].[moe]([m5C])p.[moe](G)p.[moe](A)[sp].[moe](T)}$$$$ (last 3' nucleoside missing)” was tested. Which 3 h FOB score did it give?
A: Its 3 h FOB score is 7 score 0-7.
